Source: patent US20080206761A1, “Ex Vivo Gene Expression in Whole Blood as a Model of Assessment of Individual Variation to Dietary Supplements” (priority 2005, published 2008)

How the values were obtained:
[1] = tested on: TNF-α mRNA; test: PHA-induced TNF-α mRNA expression in heparinized whole blood ex vivo; format: cell-based, human
[2] = tested on: IL-2 mRNA; test: PHA-induced IL-2 mRNA expression in heparinized whole blood ex vivo; format: cell-based, human
[3] = tested on: IL-4 mRNA; test: PHA-induced IL-4 mRNA expression in heparinized whole blood ex vivo; format: cell-based, human
[4] = tested on: TNF-α mRNA; test: PHA-induced TNF-α mRNA expression in heparinized whole blood ex vivo; format: cell-based, human; settings: for ΔΔCt (mean ± standard deviation, n = 3), TNFα mRNA: supplement 30 min, then 100 μg/mL PHA 2 h, concentrations per footnote
Protocol: (§1) In this embodiment, phytohemagglutinin-induced gene expression of interleukin-2 (IL-2), interleukin-4 (IL-4), and tumor necrosis factor-α (TNF-α) were quantitated in the following manner. Fifty μL of heparinized whole blood was incubated with various dietary supplements for a period of 30 minutes. The following supplements were employed: vitamins A, C, and D, epigallocatechin gallate (from green tea), genistein (from soy), and curcumin (from the spice turmeric). Vitamin A is known to stimulate the immune system. […] Vitamin D appears to have protective effects against certain cancers. Epigallocatechin gallate is a powerful antioxidant, appears to reduce the multidrug resistance found in cancer cells, and preferentially induces apoptosis in neoplastic cells. Genistein has been found in some studies to have anticarcinogenic activity; possible mechanisms of action include upregulation of apoptosis, inhibition of angiogenesis, inhibition of DNA topoisomerase II and inhibition of protein tyrosine kinases. Curcumin has proapoptotic effects in neoplastic cells and interferes with the activity of the transcription factor NF-κB, which is often highly overexpressed in such cells.
(§2) After incubation with the dietary supplement, 100 μg/mL phytohemagglutinin (PHA) was added and incubation was continued for an additional 2 hours at 37° C. The concentration of each dietary supplement (see Table I, note) was slightly higher than reported blood levels. Then mRNA was purified, cDNA was synthesized, and the levels of IL-2, IL-4, and TNF-α were quantitated by TaqMan real time polymerase chain reaction (PCR) (see Holland, et al., “Detection of specific polymerase chain reaction product by utilizing the 5′ to 3′ exonuclease activity of Thermus aquaticus DNA polymerase,” Proc Natl Acad Sci USA 1991; 88: 7276-80), as described below.
(§3) The mRNA and cDNA were prepared from the whole blood that was exposed to the dietary components, as well as the whole blood which remained unexposed. In brief, home-made 96-well filterplates were placed over collection plates, and 150 μl 5 mM Tris, pH 7.4, was applied. Following centrifugation at 120×g for 1 min at 4° C., 50 μl of blood samples were applied to each well and immediately centrifuged at 120×g for 2 min at 4° C., followed by washing of each well with 300 μl PBS once with centrifugation at 2000×g for 5 min at 4° C. Then, 60 μl stock lysis buffer, containing for example 0.5% N-Lauroylsarcosine, 4×SSC, 10 mM Tris HCl, pH 7.4, 1 mM EDTA, 0.1% IGEPAL CA-630, and 1.791 M guanidine thiocyanate, supplemented with 1% 2-mercaptoethanol (Bio Rad, Hercules, Calif., USA), 0.5 mg/ml proteinase K (Pierce, Rockford, Ill., USA), 0.1 mg/ml salmon sperm DNA (5 Prime Eppendorf/Brinkmann, Westbury, N.Y., USA), 0.1 mg/ml E. coli tRNA (Sigma), a cocktail of 10 mM each of the specific reverse primers shown in Table 2, and standard RNA34 oligonucleotides, were applied to the filterplates, followed by incubation at 37° C. for 10 min. The filterplates were then placed over oligo(dT)-immobilized microplates (GenePlate, RNAture), and centrifuged at 2000×g for 5 min at 4° C. Following overnight storage at 4° C., the microplates were washed with 100 μl plain lysis buffer 3 times, followed by 150 μl of wash buffer (0.5 M NaCl, 10 mM Tris, pH 7.4, 1 mM EDTA) 3 times at 4° C. The cDNA was directly synthesized in each well by adding 30 μl of buffer containing 1×RT-buffer, 1.25 mM each of dNTP, 4 units rRNasin, and 80 units of MMLV reverse transcriptase (Promega) (without primers), and incubation at 37° C. for 2 hours. The specific primer-primed cDNA existed in solution, and oligo(dT)-primed cDNA stayed immobilized in the microplate. […]

[5] = at 8 hours after a single soy meal; cited from earlier work
[6] = tested on: IL-4 mRNA; test: PHA-induced IL-4 mRNA expression in heparinized whole blood ex vivo; format: cell-based, human; settings: for ΔΔCt (mean ± standard deviation, n = 3), IL-4 mRNA: supplement 30 min, then 100 μg/mL PHA 2 h, concentrations per footnote
Protocol: as §1, §2, §3

[7] = tested on: IL-2 mRNA; test: PHA-induced IL-2 mRNA expression in heparinized whole blood ex vivo; format: cell-based, human; settings: for ΔΔCt (mean ± standard deviation, n = 3), IL-2 mRNA: supplement 30 min, concentrations per footnote
Protocol: as §1, §2, §3

[8] = tested on: CD32A mRNA (IgG Fc receptor); test: CD32A mRNA level in leukocytes after exposure of whole blood to dietary components (no stimulating agent); format: cell-based, human; settings: one individual; 3 hours at 37° C.; PBS control
Protocol: In brief, home-made 96-well filterplates were placed over collection plates, and 150 μl 5 mM Tris, pH 7.4, was applied. Following centrifugation at 120×g for 1 min at 4° C., 50 μl of blood samples were applied to each well and immediately centrifuged at 120×g for 2 min at 4° C., followed by washing of each well with 300 μl PBS once with centrifugation at 2000×g for 5 min at 4° C. […] The filterplates were then placed over oligo(dT)-immobilized microplates (GenePlate, RNAture), and centrifuged at 2000×g for 5 min at 4° C. Following overnight storage at 4° C., the microplates were washed with 100 μl plain lysis buffer 3 times, followed by 150 μl of wash buffer (0.5 M NaCl, 10 mM Tris, pH 7.4, 1 mM EDTA) 3 times at 4° C. […] The specific primer-primed cDNA existed in solution, and oligo(dT)-primed cDNA stayed immobilized in the microplate. […] Each gene was amplified in separate wells. The Ct was determined by analytical software (SDS, ABI).

[9] = tested on: TNFSF3 mRNA; test: TNFSF3 mRNA in whole blood after dietary component and heat-aggregated IgG stimulation; format: cell-based, human; settings: case 1, FIG. 5; pre-incubation 30 minutes, HAG 2 hours; quercetin 100 nmol/L
Protocol: The mRNA and cDNA were prepared from the whole blood that was exposed to the dietary components, as well as the whole blood which remained unexposed. In brief, home-made 96-well filterplates were placed over collection plates, and 150 μl 5 mM Tris, pH 7.4, was applied. Following centrifugation at 120×g for 1 min at 4° C., 50 μl of blood samples were applied to each well and immediately centrifuged at 120×g for 2 min at 4° C., followed by washing of each well with 300 μl PBS once with centrifugation at 2000×g for 5 min at 4° C. […] The Ct was determined by analytical software (SDS, ABI).
In this embodiment, heparinized whole blood of two individuals was pre-incubated with various dietary supplements at 37° C. for 30 minutes (at the same blood concentrations as in Embodiment 2), then stimulated with 1.2 μL of heat-aggregated IgG. […] The level of TNFSF3 and TNFSF15 mRNA was then assessed using the method described in Embodiment 1, with the exception that SYBR Green PCR was used to quantitate the mRNA. […]

[10] = PHA alone, 2 hours at 37° C., FIG. 1A
[11] = summary over 7 subjects of Table I

## phytohemagglutinin [PHA]
[1]; 100 μg/mL PHA, FIG. 1B
  time for TNF-α mRNA induction to reach a plateau: 30 to 60 min
[1]; [10]
  EC50 of induction of TNF-α mRNA expression: 10 to 20 µg/mL
[2]; 100 μg/mL PHA, FIG. 1B
  time for IL-2 mRNA induction to reach a plateau: 30 to 60 min
[2]; [10]
  EC50 of induction of IL-2 mRNA expression: 10 to 20 µg/mL
[3]; 100 μg/mL PHA, FIG. 1B
  time for IL-4 mRNA induction to reach a plateau: 30 to 60 min
[3]; [10]
  EC50 of induction of IL-4 mRNA expression: 10 to 20 µg/mL

## O=c1c(-c2ccc(O)cc2)coc2cc(O)cc(O)c12 [Gen., genistein]
[4]; Subject 1
  ΔΔCt (mean ± standard deviation, n = 3), TNFα mRNA: −1.14 ± 0.32
[4]; Subject 2
  ΔΔCt (mean ± standard deviation, n = 3), TNFα mRNA: −1.01 ± 0.04
[4]; Subject 3
  ΔΔCt (mean ± standard deviation, n = 3), TNFα mRNA: 0.33 ± 0.62
[4]; Subject 4
  ΔΔCt (mean ± standard deviation, n = 3), TNFα mRNA: −0.16 ± 0.12
[4]; Subject 5
  ΔΔCt (mean ± standard deviation, n = 3), TNFα mRNA: −0.32 ± 0.54
[4]; Subject 6
  ΔΔCt (mean ± standard deviation, n = 3), TNFα mRNA: −0.02 ± 0.20
[4]; Subject 7
  ΔΔCt (mean ± standard deviation, n = 3), TNFα mRNA: −0.17 ± 0.18
[4]; [11]
  effect on PHA-induced TNF-α expression, in words: mainly inactive
[5]
  plasma concentration: 4000 µM
[6]; Subject 1
  ΔΔCt (mean ± standard deviation, n = 3), IL-4 mRNA: −1.83 ± 0.20
[6]; Subject 2
  ΔΔCt (mean ± standard deviation, n = 3), IL-4 mRNA: −1.56 ± 0.46
[6]; Subject 3
  ΔΔCt (mean ± standard deviation, n = 3), IL-4 mRNA: −0.82 ± 0.34
[6]; Subject 4
  ΔΔCt (mean ± standard deviation, n = 3), IL-4 mRNA: −1.04 ± 0.16
[6]; Subject 5
  ΔΔCt (mean ± standard deviation, n = 3), IL-4 mRNA: −0.45 ± 0.34
[6]; Subject 6
  ΔΔCt (mean ± standard deviation, n = 3), IL-4 mRNA: −0.34 ± 0.02
[6]; Subject 7
  ΔΔCt (mean ± standard deviation, n = 3), IL-4 mRNA: 0.28 ± 0.25
[6]; [11]
  effect on PHA-induced IL-4 expression, in words: mainly inactive
[7]; Subject 1, then 100 μg/mL PHA 2 h 37° C., negative = increased expression
  ΔΔCt (mean ± standard deviation, n = 3), IL-2 mRNA: −0.41 ± 0.53
[7]; Subject 2, then 100 μg/mL PHA 2 h
  ΔΔCt (mean ± standard deviation, n = 3), IL-2 mRNA: 0.90 ± 0.44
[7]; Subject 3, then 100 μg/mL PHA 2 h
  ΔΔCt (mean ± standard deviation, n = 3), IL-2 mRNA: 0.11 ± 0.23
[7]; Subject 4, then 100 μg/mL PHA 2 h
  ΔΔCt (mean ± standard deviation, n = 3), IL-2 mRNA: 0.08 ± 0.04
[7]; Subject 5, then 100 μg/mL PHA 2 h
  ΔΔCt (mean ± standard deviation, n = 3), IL-2 mRNA: −0.02 ± 1.03
[7]; Subject 6, then 100 μg/mL PHA 2 h
  ΔΔCt (mean ± standard deviation, n = 3), IL-2 mRNA: 0.00 ± 0.27
[7]; Subject 7, then 100 μg/mL PHA 2 h
  ΔΔCt (mean ± standard deviation, n = 3), IL-2 mRNA: −0.28 ± 0.20
[7]; [11]
  effect on PHA-induced IL-2 expression, in words: mainly inactive
[8]
  conclusion from CD32A mRNA levels (FIG. 2), in words: would be suitable for use in this individual in a diet optimized for anti-cancer activity

## O=c1c(O)c(-c2ccc(O)c(O)c2)oc2cc(O)cc(O)c12 [quercetin]
[9]
  HAG-induced TNFSF3 expression, in words: HAG induced TNFSF3 expression in blood exposed to quercetin
